Reference: patent publication US20160144031A1, “Photo-Responsive Compounds” (priority 2013, published 2016)

Experiments:
[1] = Photolysis rate comparison: Xe flash lamp, 546±10 nm, conversion to hydroxocobalamin monitored at 350 nm; format: physicochemical; settings: 10 μM
Experimental: General procedure: Photolysis was performed using an Oriel Xe flash lamp (800 mJ, 62 Hz) with a selective bandpass filter for 546±10 nm. The conversion of alkylcobalamin to hydroxocoabalmin was determined by monitoring the absorption of the mixture at 350 nm using Perkin Elemer Lambda 2 UV/Vis spectrophotometer. (Taylor, R. T.; Smucker, L.; Hanna, M. L.; Gill, J. Arch. Biochem. Biophys. 1973, 156, 521-533.)

[2] = Photolysis (Xe flash lamp, bandpass filters) and dark storage assessed by UV-Vis and LC/MS; format: physicochemical; settings: for photolysis at 546 nm (LC/MS): 546±10 nm (20 min); for photolysis at 546 nm (LC/MS) / photolysis at 646 nm (UV-Vis, LC/MS) / photolysis at 730 nm (LC/MS) / photolysis at 780 nm (LC/MS): 10 μM; for photolysis at 646 nm (UV-Vis, LC/MS): 646±10 nm (20 min); for photolysis at 730 nm (LC/MS): 730±10 nm (150 min); for photolysis at 780 nm (LC/MS): 780±10 nm (3 h)
Experimental: […] The conversion of alkylcobalamin to hydroxocoabalmin was determined by monitoring the absorption of the mixture at 350 nm using Perkin Elemer Lambda 2 UV/Vis spectrophotometer. (Taylor, R. T.; Smucker, L.; Hanna, M. L.; Gill, J. Arch. Biochem. Biophys. 1973, 156, 521-533.)
[…] The resulting sample (100 μL) was analyzed by LC/MS using a linear gradient binary solvent system (solvent A: 0.1% formic acid/H2O; solvent B: 0.1% formic acid/CH3CN) with a ratio of A:B that varied from 97:3 (0-5 min) to 3:97 (5-18 min).

[3] = tested on: HeLa cells; experiment: Treatment of HeLa cells with colchicine (tubulin staining); format: cell-based; settings: increasing colchicine
Experimental: Treatment of HeLa cells with colchicine. […] Cells are washed 2×1 mL with PBS and blocked for 1 h in 5% donkey serum. […] Metamorph software is employed for imaging analysis.

[4] = administered by IV; cited from earlier work

Row | Molecule | photolysis at 546 nm (LC/MS) [2] | photolysis at 646 nm (UV-Vis, LC/MS) [2] | photolysis at 730 nm (LC/MS) [2] | photolysis at 780 nm (LC/MS) [2] | other results
1 | coenzyme B12-TAMRA conjugate [AdoCbl-1] | produces these products | – | – | – | rate of photolysis at 546 nm [1]: 2.9±0.3 μM^−1/m; photolysis at wavelengths beyond 600 nm (LC/MS) [2]: resistant to photolysis
2 | COc1cc2c(c(OC)c1OC)-c1ccc(OC)c(=O)cc1[C@@H](NC(C)=O)CC2 [colchicine] | – | – | – | – | effect on tubulin networks [3]: tubulin networks become disrupted
3 | C/C1=C2/[N-]C([C@H](CC(N)=O)[C@@]2(C)CCC(=O)NC[C@@H](C)OP(=O)([O-])O[C@H]2[C@@H](O)[C@@H](n3cnc4cc(C)c(C)cc43)O[C@@H]2CO)[C@]2(C)N=C(/C(C)=C3N=C(/C=C4N=C1[C@@H](CCC(N)=O)C\4(C)C)[C@@H](CCC(N)=O)[C@]\3(C)CC(N)=O)[C@@H](CCC(N)=O)[C@]2(C)CC(N)=O.[CH2-][C@H]1O[C@@H](n2cnc3c(N)ncnc32)[C@@H](O)[C@@H]1O.[Co+3] [AdoCbl, Coenzyme B12, reference compound] | produces these products | – | – | – | rate of photolysis at 546 nm [1]: 1.7±0.2 μM^−1/m; photolysis at wavelengths beyond 600 nm (LC/MS) [2]: resistant to photolysis
4 | Coenzyme B12-ATTO 725 Conjugate [AdoCbl-3] | complete photolysis | partial photolysis | complete photolysis | not at 780 nm | –
5 | C/C1=C2/[N-][C@H]([C@H](CC(N)=O)[C@@]2(C)CCC(=O)NC[C@H](C)OP(=O)([O-])O[C@H]2[C@@H](O)[C@@H](n3cnc4cc(C)c(C)cc43)O[C@@H]2CO)[C@]2(C)N=C(/C(C)=C3N=C(/C=C4N=C1[C@@H](CCC(N)=O)C\4(C)C)[C@@H](CCC(N)=O)[C@]\3(C)CC(N)=O)[C@@H](CCC(N)=O)[C@]2(C)CC(N)=O.[CH3-].[Co+3] [MeCbl, methylcobalamin] | – | – | – | – | photolysis rate [1]: 31700 ± 3300 M⁻¹ s⁻¹
6 | Coenzyme B12-SulfoCy5 Conjugate [AdoCbl-2] | produced adenosine products | produced adenosine products | unaffected | unaffected | –
7 | Coenzyme B12-Dylight® 800 Conjugate [AdoCbl-4] | generated the expected adenosine products | resistant to photolysis | Partial photolysis | generated the expected adenosine products | –
8 | αMSH: 13 amino acid α-melanocyte stimulating hormone | – | – | – | – | half life [4]: only a few minutes
